For the first experiment, the system named is human PGHS-2 protein expression in LPS stimulated human monocytes. Put plainly: Prostoglandin endoperoxide synthase-2 (PGHS-2) assay. It is filed as cell-based. Particulars: rank order potency similar to that for inhibiting cytokine production. As to the method:
The followiong assay describes a method for determining the inhibitory effects of compounds of Formula (I) on human PGHS-2 protein expression in LPS stimulated human monocytes
Human peripheal blood monocytes were isolated from buffy coats by centrifugation through Ficoll and Percoll gradients. Cells were seeded at 2×10^6 /well in 24 well plates and allowed to adhere for 1 hour in RPMI supplemented with 1% human AB serum, 20 mM L-glutamine, Penicillin-Streptomycin and 10 mM HEPES. Compounds were added at various concentrations and incubated at 37° C. for 10 minutes. LPS was added at 50 ng/well (to induce enzyme expression) and incubated overnight at 37° C. The supernatant was removed and cells washed once in cold PBS. The cells were lysed in 100 μl of cold lysis buffer(50 mM Tris/HCl pH 7.5, 150 mM NaCl, 1% NP40, 0.5% sodium deoxycholate, 0.1% SDS, 300 ug/ml DNAse, 0.1% TRITON X-100, 1 mM PMSF, 1 mM leupeptin, 1 mM pepstatin). The lysate was centrifuged (10;000×g for 10 min. at 4° C.) to remove debris and the soluble fraction was subjected to SDS PAGE. analysis (12% gel). Protein separated on the gel were transferred onto nitrocellulose membrane by electrophoretic means for 2 hours at 60 volts. The membrane was pretreated for one hour in PBS/0.1% Tween 20 with 5% non-fat dry milk. After washing 3 times in PBS/Tween buffer, the membrane was incubated with a 1:2000 dilution of a monospecific antiserum to PGHS-2 or a 1:1000 dilution of an antiserum to PGHs-1 in PBS/Tween with 1% BSA for one hour with continuous shaking. […] The membrane was then washed 3× in PBS/Tween and the ECL immunodetection system (Amersham) was used to detect the level of expression of prostaglandin endoperoxide synthases-2.
Turning to `Fc1ccc(-c2nc3n(c2-c2ccncc2)CCS3)cc1` [6-(4-Fluorophenyl)-2,3-dihydro-5-(4-pyridinyl)imidazo [2,1-b]thiazole], the “inhibition of LPS induced PGHS-2 protein expression” value (“inhibition” below) was “active”.

With `C[C@@H]1C[C@H]2[C@@H]3CCC4=CC(=O)C=C[C@]4(C)[C@@]3(F)[C@@H](O)C[C@]2(C)[C@@]1(O)C(=O)CO` [Dexamethasone], the “inhibition” value is recorded as “active”. `Fc1ccc(-c2ncn(CCCN3CCOCC3)c2-c2ccncc2)cc1` [Example 1, 1-[3-(4-Morpholinyl)propyl]-4-(4-fluorophenyl)-5-(4-pyridyl)imidazole]: the “inhibition” value is given as “active”.

The experiment is the same for the next values; noted with them: up to 10 uM.
Consider `C[S+]([O-])c1ccc(-c2nc3n(c2-c2ccncc2)CCC3)cc1` (stereo not shown) [2-(4-Methylsulfinylphenyl)-3-(4-pyridyl)-6-7-dihydro-(5H)-pyrrolo[1,2-a]imidazole], for which the “inhibition” value is “inactive”. Still for that read-out and setting: in the case of `CC(Cc1ccc(O)c(O)c1)C(C)Cc1ccc(O)c(O)c1` (stereo not shown) [NDGA] it was “inactive”. On the same count and under the same terms, in the case of `O=C1CCN(c2ccccc2)N1` [phenidone] it was “inactive”; in that of `COc1ccc(C2CNC(=O)C2)cc1OC1CCCC1` (stereo not shown) [rolipram], “inactive”.

These data come from patent US5670527A, “Pyridyl imidazole compounds and compositions” (SmithKline Beecham Corporation, priority 1995, dated 1997).
